One experiment deals with HCT116. Put plainly: MTT cell viability, HCT116. In kind it is cell-based, Human. The following applies: 72 h, MTT assay, mean ± SD (n = 6), read-out: half-maximal inhibitory concentration (IC50) HCT116. On the procedure: (§1) The potential cytotoxicity of 24 candidate compounds was initially evaluated at a single concentration level (5 μM). Then a full dose-response curve was plotted for each compound against different colorectal cancer cell lines (HCT116 and HT-29) by MTT assay after 72 h treatments. 4-hydroxycoumarin, OSU-CG5, and OSU-CG12 were used as positive controls. […] Compounds 9b, 9c, 9f, 9i, 11b, and 11c were selected for further studies to determine the full dose-response survival curves using different concentrations (0.1–20 µM) against CRC cell lines and normal fibroblast cell line (F180) at different time points (Fig. 2A–2F and supplementary material Page S63 and S64).
(§2) Human colorectal carcinoma cell lines (HCT116) and (HT-29) were obtained from the European Collection of Cell Cultures (ECACC, UK). The cell lines were cultured in Roswell Park Memorial Institute medium (RPMI-1640, Sigma-Aldrich-St. Louis, MO, USA) supplemented with 10% fetal bovine serum (Sigma-Aldrich-St. Louis, MO, USA) and 1% penicillin/streptomycin (Sigma-Aldrich- Louis, MO, USA). F180 cell line (Human Normal Fibroblast), was kindly given by professor Ekkehard Dikomey (University Cancer Center, Hamburg University, Hamburg, Germany) and were cultured in Dulbecco’s Modified Eagle’s medium (DMEM, Sigma-Aldrich-St. Louis, MO, USA) supplemented with 10% fetal bovine serum (Sigma-Aldrich-St. Louis, MO, USA) and 1% penicillin/streptomycin (Sigma-Aldrich- Louis, MO, USA). All cell incubations were done at 37 °C in a humidified atmosphere of 5% CO2.
(§3) Cell viability was assessed using, 3-(4,5-dimethylthiazol-2-yl)-2,5-diphenyltetrazolium bromide (MTT) assay as previously described. In summary, cancer cell lines or F180 were seeded in complete medium at the density of 3 × 10^3/well and 5 × 10^3/well respectively in 96 well flat-bottom plates. After 24 h, cells were incubated with the candidate compounds at the indicated concentration for (24, 48 or 72 h). DMSO was used as vehicle control and 4-Hydroxycoumarin was purchased from (Sigma-Aldrich, St. Louis, MO, USA) and Cisplatin from Hospira UK Ltd. At the end of treatment, the media were aspirated from each well and incubated with 200 µL of MTT tetrazolium dye (Sigma-Aldrich, St. Louis, MO, USA) at a final concentration of 0.5 mg/ml for 2 h at 37 °C. The reduced MTT crystals were solubilized in 200 µl/well of DMSO and the absorbance was measured at 570 nm using a microplate reader (Thermo-Scientific, Vantaa, Finland).
For orientation: Tetrazolium dyes change colour on reduction, which living cells bring about.

For experiment [1], the system named is Caspase 3/7 activities in HCT116 cells. Put plainly: Caspase 3/7 activity assay, HCT116. The following applies: HCT116, 72 h. In kind it is cell-based, Human. On the procedure: Based on this, the energy restriction mediated anticancer activity of the new coumarin tagged aminothiazole derivatives was investigated. The expression levels of PARP, p-Akt, Akt, p-AMPK, AMPK, β-TrCP, LC3A/B-I, LC3A/B-II, caspase-3, cyclin D1, and Bcl-2 proteins were determined by Western blot analysis after 72 h treatment of HT-29 and HCT116 at different concentrations based on the IC50 values of each compound (Fig. 3A,B). […] Moreover, the treatment with 9b and 9f induced caspase 3/7 activation, which was detected by caspase 3/7 activity assay and confirmed by Western blot. The activation of caspases was significant in 9b in both cell lines and significant with 9f in HCT116 cells only and minimal in HT-29 cells (Fig. 3C,D). On the other hand, both 9b and 9f induced dose-dependent proteolytic processing of PARP. […] Besides, the protein expression level of the anti-apoptotic protein, Bcl-2, was reduced in HCT116 upon treatment with both compounds.
Caspase-3/7 activities in HT-29 and HCT116 cells treated with candidate compounds were measured using Caspase-Glo 3/7 assay kit (Promega, Madison, WI, USA) following the manufacturer’s instructions. […] 50 µL of lysate and 50 µL of caspase substrate were added to a white opaque 96-well plate, and the luminescence was measured by Varioskan Flash multimode reader (Thermo-Scientific, Vantaa, Finland)

The test system of experiment [2] is normal fibroblast cell line (F180). Put plainly: MTT cell viability, normal fibroblasts F180. In kind it is cell-based. The following applies: Homo sapiens, read-out: IC50 on normal cells. On the procedure:
as §1
Human colorectal carcinoma cell lines (HCT116) and (HT-29) were obtained from the European Collection of Cell Cultures (ECACC, UK). The cell lines were cultured in Roswell Park Memorial Institute medium (RPMI-1640, Sigma-Aldrich-St. Louis, MO, USA) supplemented with 10% fetal bovine serum (Sigma-Aldrich-St. Louis, MO, USA) and 1% penicillin/streptomycin (Sigma-Aldrich- Louis, MO, USA). […]
Cell viability was assessed using, 3-(4,5-dimethylthiazol-2-yl)-2,5-diphenyltetrazolium bromide (MTT) assay as previously described. […] The reduced MTT crystals were solubilized in 200 µl/well of DMSO and the absorbance was measured at 570 nm using a microplate reader (Thermo-Scientific, Vantaa, Finland).

Experiment [3] deals with HT-29. Put plainly: MTT cell viability, HT-29. The class given is cell-based, Human. Conditions: 72 h, MTT assay, mean ± SD (n = 6), read-out: half-maximal inhibitory concentration (IC50) HT-29. On the procedure: as §1, §2, §3
Experiment [4] deals with colorectal cancer cell lines, HCT116 and HT-29. Put plainly: MTT cell viability, colorectal cancer cell lines (summary statements). In kind it is cell-based, Human. Conditions: for anticancer activities in initial screening, in words: HT-29 and HCT116 cancer cell lines. On the procedure: as §1, §2, §3
Experiment [5] deals with HT-29. Put plainly: ROS-Glo H2O2 assay, HT-29. In kind it is cell-based, Human. Conditions: HT-29, 6 h incubation. An excerpt: According to previous studies, ERMAs inhibited glucose utilization in cancer cells[13],[19]. Therefore, we investigated glucose uptake (Fig. 5A) upon treatment with 9b and 9f in HT-29 and HCT116 cells at different concentrations based on the IC50 of each compound. […] This effect is known to result in the accumulation of reactive oxygen species (ROS) and could play a role in glucose deprivation-induced cytotoxicity and oxidative stress in cancer cells. […] The observed increase in ROS levels could lead to oxidative stress and extensive cell death in the absence of NADPH detoxification.
NADPH/NADP+ and ROS concentrations were measured using the NADP/NADPH-Glo Assay Kit (Promega, Madison, WI, USA) and ROS-Glo H2O2 Assay (Promega, Madison, WI, USA), respectively, based on the manufacturer instructions. In NADPH/NADP+ assay, CRC cells were seeded into a 96-well flat-bottomed plate and incubated overnight. On the following day, cells were treated with the testing compound or vehicle for 48 h. At the endpoint of treatment, the media were aspirated and replaced with 60 µl PBS/well, then cells were lysed in 60 µl base solution with 1% dodecyl (trimethyl) ammonium bromide (Sigma-Aldrich-St. Louis, MO, USA). […] Luminescence was measured after 30 minutes using Varioskan Flash multimode reader (Thermo Scientific). […] Luminescence was measured after 20 min incubation at room temperature.

Where two headings read alike, the source gives them in different places.

For the molecule `Cc1cc(=O)oc2cc(Nc3nc(-c4cccc([N+](=O)[O-])c4)cs3)ccc12` [Compound 9f, 4-Methyl-7-(4-(3-Nitrophenyl)thiazol-2-ylamino)-2H-chromen-2-one], the IC50 in the experiment on HCT116 was determined as 2.56 ± 0.553 µM; with HCT116 (Homo sapiens, HCT-116, 72 h), 3.96 µM; in experiment [2] it was 7.97 µM; in the experiment with HT-29 [3], 3.96 ± 0.506 µM; in the experiment on HT-29 [3] (Homo sapiens, HT-29, 72 h), 2.56 µM. The “activation of caspases (caspase 3/7)” value in experiment [1] was “significant”. Besides, the “anticancer activities in initial screening, in words” value in experiment [4] is on record as “significant anticancer activities”.

On to `Cc1cc(=O)oc2cc(Nc3nc(-c4ccc(Br)cc4)cs3)ccc12` [Compound 9b, 7-(4-(4-Bromophenyl)thiazol-2-ylamino)-4-methyl-2H-chromen-2-one], for which the IC50 in the experiment with HCT116 is 0.53 ± 0.077 µM; in the experiment with HCT116 (Homo sapiens, HCT-116, 72 h), 0.38 µM; in the experiment on HT-29 [3] it was 0.38 ± 0.044 µM; in the experiment on HT-29 [3] (Homo sapiens, HT-29, 72 h), 0.53 µM; in experiment [4] (both cell lines, summary statement), under 0.6 µM. Also, the “activation of caspases (caspase 3/7)” value in experiment [1] is reported as “significant”. In addition, the “generation of hydrogen peroxide (H2O2) and ROS” value in the experiment on HT-29 [5] is on record as “significantly increased”. Besides, the “anticancer activities in initial screening, in words” value in experiment [4] is given as “significant anticancer activities”.

(Values after article PMC7031302, “Design and synthesis of new energy restriction mimetic agents: Potent anti-tumor activities of hybrid motifs of aminothiazoles and coumarins” (Scientific Reports, 2020).)
